{"source": "patent US20260256792A1", "about": "“TREATMENT OF CHRONIC SPONTANEOUS URTICARIA BY ADMINISTERING (R)-2-[3-[4-AMINO-3-(2-FLUORO-4-PHENOXY-PHENYL)PYRAZOLO[3,4-D]PYRIMIDIN-1-YL]PIPERIDINE-1-CARBONYL]-4-METHYL-4-[4-(OXETAN-3-YL)PIPERAZIN-1-YL]PENT-2-ENENITRILE” (priority 2023, published 2026)", "test_system": "moderate-to-severe chronic spontaneous urticaria (CSU)", "test": "Phase 2 CSU study: urticaria activity score over 7 days (UAS7)", "format": "in vivo, human", "parameters": "key to UAS7 Median / UAS7 Change from baseline Median / UAS7 change from baseline, Q1 / UAS7 change from baseline, Q3 / UAS7 change from baseline, Max / UAS7 Change from baseline LS Mean (SE): UAS7 points; daily UAS score ranges 0–6 points/day, over 7 days", "source_text": "The study comprises a 12 week, randomized, double-blind, placebo-controlled, multi-center, dose-ranging efficacy and safety phase, followed by a 40 week open label extension (OLE) phase (see FIG. 1). The study consists of three phases and an optional OLE phase. […] Clinically, CSU is characterized by the spontaneous and recurrent appearance of pruritic hives. The proposed primary endpoints were the UAS7 at Week 12 in EU and EU reference countries and the ISS7 in the US. Regardless of where a participant was from, all assessments were the same. The UAS7 score is a composite score containing both the HSS7 and the ISS7. This allowed a global assessment of the two key components of urticaria: hives and itch. […] The UAS is a validated PRO measure. […] The daily UAS scores range from 0 to 6 point/day. […] Patients were to complete the UAS using the e-diary. […] The following secondary endpoints were to be analyzed using the same approach as for the primary endpoint: • Change from baseline in UAS7 at Week 4 • Change from baseline in UAS7 at Week 12 (for US and US reference countries) • Change from baseline in ISS7 at Week 12 (except US and US reference countries) • Change from baseline in HSS7 at Week 12 The following responder secondary endpoints were to be analyzed using the Cochran-Mantel-Haenszel test adjusted by region: • Proportion of participants with UAS7<6 at Week 12 • Proportion of participants with UAS7=0 at Week 12 Participants who received selected prohibited medications and/or rescue medications were to be considered as non-responders for time points after the medication usage. For other participants, all available data including those collected during the off-treatment period were to be used to determine the responder/non-responder status. Missing data were to be considered as non-responders.", "key": {"[1]": {"conditions": "Week 10, 400 mg TID, ITT population"}, "[2]": {"conditions": "Week 10, 400 mg TID, Omalizumab-Naïve"}, "[3]": {"conditions": "Week 10, 400 mg TID, Prior Omalizumab Use"}, "[4]": {"conditions": "Week 10, 400 mg TID, omalizumab-naive participants"}, "[5]": {"conditions": "Week 11, 400 mg BID, ITT population"}, "[6]": {"conditions": "Week 11, 400 mg BID, Omalizumab-Naïve"}, "[7]": {"conditions": "Week 11, 400 mg BID, Prior Omalizumab Use"}, "[8]": {"conditions": "Week 11, 400 mg BID, omalizumab-naive participants"}, "[9]": {"conditions": "Week 11, 400 mg QPM, ITT population"}, "[10]": {"conditions": "Week 11, 400 mg QPM, Omalizumab-Naïve"}, "[11]": {"conditions": "Week 11, 400 mg QPM, Prior Omalizumab Use"}, "[12]": {"conditions": "Week 11, 400 mg QPM, omalizumab-naive participants"}, "[13]": {"conditions": "Week 11, 400 mg TID, ITT population"}, "[14]": {"conditions": "Week 11, 400 mg TID, Omalizumab-Naïve"}}, "data": [{"smiles": "CC(C)(C=C(C#N)C(=O)N1CCC[C@@H](n2nc(-c3ccc(Oc4ccccc4)cc3F)c3c(N)ncnc32)C1)N1CCN(C2COC2)CC1", "note": "[rilzabrutinib, (R)-2-[3-[4-amino-3-(2-fluoro-4-phenoxy-phenyl)pyrazolo[3,4-d]pyrimidin-1-yl]piperidine-1-carbonyl]-4-methyl-4-[4-(oxetan-3-yl)piperazin-1-yl]pent-2-enenitrile]", "values": [{"measurement": "Non-responder, UAS7 reduction from baseline of 10 points or more", "setting": "[1]", "result": "14 (34.1) n (%)"}, {"measurement": "OR for rilzabrutinib vs. placebo, UAS7 reduction of 10 points or more", "setting": "[1]", "result": 2.018}, {"measurement": "RRD (%) for rilzabrutinib vs. placebo, UAS7 reduction of 10 points or more", "setting": "[1]", "result": 15.7, "unit": "%"}, {"measurement": "Responder, UAS7 reduction from baseline of 10 points or more", "setting": "[1]", "result": "27 (65.9) n (%)"}, {"measurement": "UAS7 Change from baseline Median", "setting": "[2]", "result": "−20.00"}, {"measurement": "UAS7 Mean (SD)", "setting": "[2]", "result": "12.61 (9.89)"}, {"measurement": "UAS7 Median", "setting": "[2]", "result": 12.83}, {"measurement": "UAS7 Percent change from baseline Mean (SD)", "setting": "[2]", "result": "−58.08 (31.82) %"}, {"measurement": "UAS7 Percent change from baseline Median", "setting": "[2]", "result": "−59.49", "unit": "%"}, {"measurement": "UAS7 Change from baseline Mean (SD)", "setting": "[3]", "result": "−25.19 (15.27)"}, {"measurement": "UAS7 Change from baseline Median", "setting": "[3]", "result": "−25.08"}, {"measurement": "UAS7 Mean (SD)", "setting": "[3]", "result": "7.83 (11.43)"}, {"measurement": "UAS7 Median", "setting": "[3]", "result": 4.00}, {"measurement": "UAS7 Percent change from baseline Mean (SD)", "setting": "[3]", "result": "−73.42 (30.92) %"}, {"measurement": "UAS7 Percent change from baseline Median", "setting": "[3]", "result": "−84.09", "unit": "%"}, {"measurement": "Non-responder, UAS7 reduction from baseline of 10 points or more", "setting": "[4]", "result": "12 (34.3) n (%)"}, {"measurement": "OR for rilzabrutinib vs. placebo, UAS7 reduction of 10 points or more", "setting": "[4]", "result": 2.327}, {"measurement": "RRD (%) for rilzabrutinib vs. placebo, UAS7 reduction of 10 points or more", "setting": "[4]", "result": 19.8, "unit": "%"}, {"measurement": "Responder, UAS7 reduction from baseline of 10 points or more", "setting": "[4]", "result": "23 (65.7) n (%)"}, {"measurement": "Non-responder, UAS7 reduction from baseline of 10 points or more", "setting": "[5]", "result": "19 (46.3) n (%)"}, {"measurement": "OR for rilzabrutinib vs. placebo, UAS7 reduction of 10 points or more", "setting": "[5]", "result": 1.009}, {"measurement": "RRD (%) for rilzabrutinib vs. placebo, UAS7 reduction of 10 points or more", "setting": "[5]", "result": 0.2, "unit": "%"}, {"measurement": "Responder, UAS7 reduction from baseline of 10 points or more", "setting": "[5]", "result": "22 (53.7) n (%)"}, {"measurement": "UAS7 Change from baseline Mean (SD)", "setting": "[6]", "result": "−14.86 (11.83)"}, {"measurement": "UAS7 Change from baseline Median", "setting": "[6]", "result": "−19.00"}, {"measurement": "UAS7 Mean (SD)", "setting": "[6]", "result": "15.06 (13.80)"}, {"measurement": "UAS7 Percent change from baseline Mean (SD)", "setting": "[6]", "result": "−51.82 (39.20) %"}, {"measurement": "UAS7 Percent change from baseline Median", "setting": "[6]", "result": "−57.14", "unit": "%"}, {"measurement": "UAS7 Change from baseline Mean (SD)", "setting": "[7]", "result": "−20.43 (19.00)"}, {"measurement": "UAS7 Change from baseline Median", "setting": "[7]", "result": "−25.00"}, {"measurement": "UAS7 Mean (SD)", "setting": "[7]", "result": "11.57 (15.45)"}, {"measurement": "UAS7 Median", "setting": "[7]", "result": 2.00}, {"measurement": "UAS7 Percent change from baseline Mean (SD)", "setting": "[7]", "result": "−59.15 (51.57) %"}, {"measurement": "UAS7 Percent change from baseline Median", "setting": "[7]", "result": "−92.59", "unit": "%"}, {"measurement": "Non-responder, UAS7 reduction from baseline of 10 points or more", "setting": "[8]", "result": "16 (45.7) n (%)"}, {"measurement": "OR for rilzabrutinib vs. placebo, UAS7 reduction of 10 points or more", "setting": "[8]", "result": 1.183}, {"measurement": "RRD (%) for rilzabrutinib vs. placebo, UAS7 reduction of 10 points or more", "setting": "[8]", "result": 4.4, "unit": "%"}, {"measurement": "Responder, UAS7 reduction from baseline of 10 points or more", "setting": "[8]", "result": "19 (54.3) n (%)"}, {"measurement": "Non-responder, UAS7 reduction from baseline of 10 points or more", "setting": "[9]", "result": "19 (50.0) n (%)"}, {"measurement": "OR for rilzabrutinib vs. placebo, UAS7 reduction of 10 points or more", "setting": "[9]", "result": 0.945}, {"measurement": "RRD (%) for rilzabrutinib vs. placebo, UAS7 reduction of 10 points or more", "setting": "[9]", "result": "−1.3", "unit": "%"}, {"measurement": "Responder, UAS7 reduction from baseline of 10 points or more", "setting": "[9]", "result": "19 (50.0) n (%)"}, {"measurement": "UAS7 Change from baseline Mean (SD)", "setting": "[10]", "result": "−11.28 (9.60)"}, {"measurement": "UAS7 Change from baseline Median", "setting": "[10]", "result": "−11.00"}, {"measurement": "UAS7 Mean (SD)", "setting": "[10]", "result": "21.17 (11.16)"}, {"measurement": "UAS7 Median", "setting": "[10]", "result": 20.00}, {"measurement": "UAS7 Percent change from baseline Mean (SD)", "setting": "[10]", "result": "−35.34 (30.18) %"}, {"measurement": "UAS7 Percent change from baseline Median", "setting": "[10]", "result": "−34.19", "unit": "%"}, {"measurement": "UAS7 Change from baseline Mean (SD)", "setting": "[11]", "result": "−23.00 (NC)"}, {"measurement": "UAS7 Change from baseline Median", "setting": "[11]", "result": "−23.00"}, {"measurement": "UAS7 Mean (SD)", "setting": "[11]", "result": "18.00 (NC)"}, {"measurement": "UAS7 Median", "setting": "[11]", "result": 18.00}, {"measurement": "UAS7 Percent change from baseline Mean (SD)", "setting": "[11]", "result": "−56.10 (NC) %"}, {"measurement": "UAS7 Percent change from baseline Median", "setting": "[11]", "result": "−56.10", "unit": "%"}, {"measurement": "Non-responder, UAS7 reduction from baseline of 10 points or more", "setting": "[12]", "result": "19 (51.4) n (%)"}, {"measurement": "OR for rilzabrutinib vs. placebo, UAS7 reduction of 10 points or more", "setting": "[12]", "result": 0.946}, {"measurement": "RRD (%) for rilzabrutinib vs. placebo, UAS7 reduction of 10 points or more", "setting": "[12]", "result": "−1.3", "unit": "%"}, {"measurement": "Responder, UAS7 reduction from baseline of 10 points or more", "setting": "[12]", "result": "18 (48.6) n (%)"}, {"measurement": "Non-responder, UAS7 reduction from baseline of 10 points or more", "setting": "[13]", "result": "14 (34.1) n (%)"}, {"measurement": "OR for rilzabrutinib vs. placebo, UAS7 reduction of 10 points or more", "setting": "[13]", "result": 1.624}, {"measurement": "RRD (%) for rilzabrutinib vs. placebo, UAS7 reduction of 10 points or more", "setting": "[13]", "result": 10.3, "unit": "%"}, {"measurement": "Responder, UAS7 reduction from baseline of 10 points or more", "setting": "[13]", "result": "27 (65.9) n (%)"}, {"measurement": "UAS7 Change from baseline Median", "setting": "[14]", "result": "−17.00"}, {"measurement": "UAS7 Median", "setting": "[14]", "result": 13.00}, {"measurement": "UAS7 Percent change from baseline Mean (SD)", "setting": "[14]", "result": "−56.01 (34.22) %"}, {"measurement": "UAS7 Percent change from baseline Median", "setting": "[14]", "result": "−60.00", "unit": "%"}]}]}
